In patent publication US6605641B2, “20-HETE antagonists and agonists” (MCW Research Foundation, priority 1998, dated 2003):
Entries after “also recorded” stand apart in the source; their conditions may differ. Values belong to the compound of their own block, whether it stands above or below them.

Key:
[1] = test system: OK cells; conditions: 20-HETE 10^−9 M; cited from earlier work
[2] = test system: isolated, pressured rat renal interlobular arteries; experiment: Isolated vessel studies: vasoconstrictor response (vascular diameter) to cumulative doses of 20-HETE analogs; assay type: cell-based; conditions: for effect on the diameter of renal interlobular arteries (vasoconstrictor/agonist activity): 10^−8 to 10^−6 M (up to 1 μM), indomethacin, baicalein, 17-ODYA present, diameter 2 to 3 minutes after addition
Procedure: General. Experiments were performed on 10 to 12-week old male Sprague-Dawley rats purchased from Harlan Sprague-Dawley Laboratories (Indianapolis, Ind.). The rats were housed in the animal care facility at the Medical College of Wisconsin, which is approved by the American Association for the Accreditation of Laboratory Animal Care. The animals had free access to food and water. All protocols involving animals received approval by the Animal Care Committee of the Medical College of Wisconsin.
(§1) Isolated vessel studies. Interlobular arterioles (70-120 μm inner diameter) were microdissected from the kidneys of rats. The vessels were mounted on glass micropipettes in a perfusion chamber containing physiological saline solution equilibrated with a 95% O2-5% CO2 gas mixture and maintained at 37° C. The vessel were secured to the pipettes and side branches were tied off with 10-0 silk suture. The inflow pipette was connected to a pressurized reservoir to control of intraluminal perfusion pressure, which was monitored using a transducer (Cobe, Lakewood, Colo.). The vessels were stretched to in vivo length measured before microdissection. The outflow cannula was clamped off and intraluminal pressure was maintained at 90 mm Hg during the experiment. Vascular diameters were measured with a video system composed of a stereo microscope (Carl Zeiss, Inc., Germany), a CCTV television camera (KP-130AU, Hitachi, Japan), a videocassette recorder (AG-7300, Panasonic, Japan), a television monitor (CVM-1271, Sony, Japan), and a video measuring system (VIA-100, Boeckeler Instrument Co., Tucson, Ariz.).
(§2) The composition of the perfusate and the bath was (in mM): 119 NaCl, 4.7 KCl, 1.17 MgSO4, 1.6 CaCl2, 12 NaHCO3, 1.18 NaH2PO4, 0.03 EDTA and 10 glucose, pH 7.4. Indomethacin (5 μM), baicalein (0.5 μM) and 17-ODYA (1 μM) were added to the bath to block the endogenous formation and metabolism of eicosanoids via the cyclooxygenase, lipoxygenase and cytochrome P450 pathways. After the equilibration period, cumulative dose response curves were generated for each of the 20-HETE analogs.
Effect of the position of the hydroxyl group on the vasoconstrictor response to 20-HETE. These experiments examined the effects of increasing concentrations of 5(S)-, 8(S)-, 12(S)-, 15(S)-, and 19(S)-HETE on the diameter of isolated, pressured rat renal interlobular arteries. All of these analogs have the same number of carbons, double bonds and molecular weight as 20-HETE (FIG. 1). The major difference between these compounds and 20-HETE is the position of the OH group along the carbon chain. Additional experiments were performed with arachidonic acid and 20-carboxyarachidonic acid, which are structurally similar to 20-HETE but lack a hydroxyl group on the 20th carbon and 20-hydroxyeicosa-6, 15-dienoic acid (reverse 20-HETE) which has the carboxy- and hydroxy-moieties on the 1st and 20th carbons reversed. Cumulative dose response curves were generated for each compound (10^−8 to 10^−6 M) in the presence of indomethacin, baicalein, and 17-ODYA. Vascular diameters were recorded 2 to 3 minutes after the addition of the compounds to the bath.
Effect of the double bonds and carbon chain length to the vasoconstrictor response to 20-HETE. We next examined the importance of the double bonds and the length of the carbon chain to the vasoconstrictor response to 20-HETE. In these studies, the double bonds in the 20-HETE molecule were removed creating partial and saturated 20-HETE derivatives (20-hydroxyeicosa-6(Z),15(Z) dienoic acid; 20-hydroxyeicosanoic acid, FIG. 1). 20-HETE was also shortened by one carbon, creating a 19-carbon analog (19-hydroxynonadeca-5(Z),8(Z),11(Z),14(Z)-tetraenoic acid, FIG. 1) and double bonds were removed, creating a saturated 19-carbon analog (19 hydroxynonadecanoic acid, FIG. 1). […]

[3] = test system: vascular smooth muscle cells; conditions: read-out: EC50 as constrictor; cited from earlier work
[4] = test system: LLC-PK1 cells; conditions: 20-HETE 10^−9 M; cited from earlier work
[5] = test system: renal, cerebral and skeletal muscle arterioles; conditions: read-out: EC50 as constrictor; cited from earlier work
[6] = test system: vasoconstrictor response to 20-HETE in isolated renal interlobular arteries; experiment: 20-HETE antagonist activity: dose response curves to 20-HETE before and after addition of analog; assay type: cell-based, rat; conditions: for effect of analog on the vasoconstrictor response to 20-HETE (antagonist activity): analog 0.5 or 1 μM in bath, 20-HETE 10^−8 to 10^−6 M
Procedure: We also disclose below a test for 20-HETE antagonist activity. In this analysis, test compounds were analyzed by a cumulative dose response curve to 20-HETE generated before and after the addition of the test compound. […] We envision suitable antagonists as similarly blocking the vasoconstrictor response.
as §1, §2
20-HETE antagonist activity. […] In these experiments, cumulative dose response curves to 20-HETE (10^−8 to 10^−6 M) were generated before and after addition of 5(S)-HETE (0.5 μM), 8(S)-HETE (1 μM), 12(S)-HETE (0.5 μM), 15(S)-HETE (1 μM), 19(S)-HETE (1 μM), the C19-analog (1 μM), arachidonic acid (1 μM), 20-carboxy-arachidonic acid (1 μM), reverse 20-HETE (1 μM), saturated 20-HETE (1 μM), and the saturated C19-analog (1 μM) to the bath. Vascular diameters were recorded 2 to 3 minutes after the addition of each dose of 20-HETE to the bath.

Compound: O=C(O)CCC/C=C\C/C=C\C/C=C\C/C=C\CCCCCO [20-HETE, 20-hydroxyeicosatetraenoic acid]
- growth of cultured cells [1]: promotes the growth
- threshold concentration that reduced vascular diameter ([2]; renal interlobular arterioles): 10 nM
- EC50 [3]: < 0.01 µM
- growth of cultured cells [4]: promotes the growth
- EC50 [5]: < 0.01 µM

Compound: O=C(O)CCC/C=C\C/C=C\C/C=C\C/C=C\CCCCO [C19-analog, 19-Hydroxynonadeca-5(Z),8(Z),11(Z),14(Z)-tetraenoic Acid]
- effect on the diameter of renal interlobular arteries (vasoconstrictor/agonist activity) ([2]; listed as 19-carbon analog of 20-HETE): no significant effect
- effect on the diameter of renal interlobular arteries (vasoconstrictor/agonist activity) ([2]; listed as 19-carbon derivative of 20-HETE): no effect
- effect of analog on the vasoconstrictor response to 20-HETE (antagonist activity) [6]: completely eliminated the response to 20-HETE
- effect of analog on the vasoconstrictor response to 20-HETE (antagonist activity) ([6]; listed as C19 analog): very effective antagonists

Compound: CCCCC/C=C\C/C=C\C/C=C\C/C=C\CCCC(=O)O [arachidonic acid]
- effect on the diameter of renal interlobular arteries (vasoconstrictor/agonist activity) [2]: no significant effect; also recorded: does not constrict
- reduction of the vasoconstrictor response to 20-HETE ([6]; analog 1 μM in bath, for arachidonic acid response to 1 μM 20-HETE): 50%
- effect of analog on the vasoconstrictor response to 20-HETE (antagonist activity) [6]: very effective antagonists

- melting point: 86 °C
Compound: O=C(O)CCCCCCCCCCCCCCCCCCCO [saturated 20-HETE derivative, 20-Hydroxyeicosanoic Acid]
- effect on the diameter of renal interlobular arteries (vasoconstrictor/agonist activity) [2]: no effect
- effect of analog on the vasoconstrictor response to 20-HETE (antagonist activity) [6]: exhibited competitive antagonist activity
- effect of analog on the vasoconstrictor response to 20-HETE (antagonist activity) ([6]; listed as saturated C20-analog): not as effective as the parent compounds

Compound: Eicosatetraen-1,20-dioic Acid [20-carboxy-arachidonic acid]
- effect on the diameter of renal interlobular arteries (vasoconstrictor/agonist activity) [2]: no significant effect
- effect of analog on the vasoconstrictor response to 20-HETE (antagonist activity) [6]: no significant antagonistic properties
